# Patent publication US20260274892A1, “MACROCYCLIC BROAD SPECTRUM ANTIBIOTICS” (RQx Pharmaceuticals, Inc., priority 2017, published 2026)
# System: Escherichia coli ATCC 25922
# Experiment: Minimum inhibitory concentration (MIC), CLSI broth micro-dilution, E. coli
# Type: cell-based
# Settings: Escherichia coli, ATCC25922, 22 h, Table 6, cation adjusted Mueller Hinton Broth + 0.002% Tween-80, 35° C.
# Method in brief: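 Colonies grown 20 h at 35° C on Trypticase Soy agar (MRSA) or Luria agar (E. coli) were suspended in cation-adjusted Mueller Hinton broth with 0.002% Tween-80. Suspensions were added at OD600 0.0005 to 10-point twofold compound dilutions, then incubated 22 h at 35° C.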
row,SMILES,MIC [µM]
1,"C[C@@H]1NC(=O)[C@@H](N(C)C(=O)[C@H](CCN)NC(=O)c2c(N)cc(-c3ccc(C(C)(C)C)cc3)nc2Cl)c2ccc(OCCN)c(c2)-c2cc(ccc2OCCN)C[C@@H](C(=O)NCC#N)NC1=O (racemic) [Compound 554, rac-(8S,11S,14S)-3,18-bis(2-aminoethoxy)-N-(cyanomethyl)-11-methyl-14-[methyl-[rac-(2S)-4-amino-2-[[4-amino-6-(4-tert-butylphenyl)-2-chloro-pyridine-3-carbonyl]amino]butanoyl]amino]-10,13-dioxo-9,12-diazatricyclo[13.3.1.12,6]icosa-1(18),2(20),3,5,15(19),16-hexaene-8-carboxamide]",0.094
2,"Cc1cc(-c2ccc(C(C)(C)C)cc2)cc(N)c1C(=O)N[C@@H](CCN)C(=O)N(C)[C@@H]1C(=O)N[C@@H](C)C(=O)N[C@H](C(=O)NCC#N)Cc2ccc(OCCN)c(c2)-c2cc1ccc2OCCN (racemic) [Compound 373, rac-(8S,11S,14S)-3,18-bis(2-aminoethoxy)-N-(cyanomethyl)-11-methyl-14-[methyl-[rac-(2S)-4-amino-2-[[2-amino-4-(4-tert-butylphenyl)-6-methyl-benzoyl]amino]butanoyl]amino]-10,13-dioxo-9,12-diazatricyclo[13.3.1.12,6]icosa-1(18),2(20),3,5,15(19),16-hexaene-8-carboxamide]",0.13

# Same assay, conditions: Escherichia coli, ATCC25922, 22 h, Table 7, cation adjusted Mueller Hinton Broth + 0.002% Tween-80, 35° C.
row,SMILES,MIC [µM]
1,"Cc1nc(-c2ccc(C(C)(C)C)cc2)nc(C)c1C(=O)N[C@@H](CNS(N)(=O)=O)C(=O)N(C)[C@@H]1C(=O)N[C@@H](C)C(=O)N[C@H](C(=O)NCC#N)Cc2ccc(OCCN)c(c2)-c2cc1cc(OCCN)c2O (racemic) [Compound 584, rac-(8S,11S,14S)-3,17-bis(2-aminoethoxy)-N-(cyanomethyl)-18-hydroxy-11-methyl-14-[methyl-[rac-(2S)-2-[[2-(4-tert-butylphenyl)-4,6-dimethyl-pyrimidine-5-carbonyl]amino]-3-(sulfamoylamino)propanoyl]amino]-10,13-dioxo-9,12-diazatricyclo[13.3.1.12,6]icosa-1(18),2(20),3,5,15(19),16-hexaene-8-carboxamide]",0.5
2,"Cc1nc(-c2ccc(C(C)(C)C)cc2)nc(C)c1C(=O)N[C@@H](CCN)C(=O)N(C)[C@@H]1C(=O)N[C@@H](C)C(=O)N[C@H](C(=O)NCC#N)Cc2ccc(O)c(c2)-c2cc1cc(OCCN)c2O [Compound 632, (8S,11S,14S)-14-[[(2S)-4-amino-2-[[2-(4-tert-butylphenyl)-4,6-dimethyl-pyrimidine-5-carbonyl]amino]butanoyl]-methyl-amino]-17-(2-aminoethoxy)-N-(cyanomethyl)-3,18-dihydroxy-11-methyl-10,13-dioxo-9,12-diazatricyclo[13.3.1.12,6]icosa-1(18),2(20),3,5,15(19),16-hexaene-8-carboxamide]",0.5

# Same assay, conditions: Escherichia coli, ATCC25922, Table 6, cation adjusted Mueller Hinton Broth + 0.002% Tween-80, 35° C., 22 hours
row,SMILES,MIC [µM]
1,"C[C@@H]1NC(=O)[C@@H](N(C)C(=O)[C@H](CCN)NC(=O)c2cnc(-c3ccc(C(C)(C)C)cc3)nc2OCC(=O)O)c2ccc(OCCN)c(c2)-c2cc(ccc2OCCN)C[C@@H](C(=O)NCC#N)NC1=O (racemic) [Compound 420, 2-[2-(4-tert-butylphenyl)-5-[[rac-(1S)-3-amino-1-[methyl-[rac-(7S,10S,13S)-3,18-bis(2-aminoethoxy)-13-(cyanomethylcarbamoyl)-10-methyl-8,11-dioxo-9,12-diazatricyclo[13.3.1.12,6]icosa-1(19),2,4,6(20),15,17-hexaen-7-yl]carbamoyl]propyl]carbamoyl]pyrimidin-4-yl]oxyacetic acid]",3
2,"Cc1nc(-c2ccc(C3(C(F)(F)F)CC3)cc2)ccc1C(=O)N[C@@H](CCN)C(=O)N(C)[C@@H]1C(=O)N[C@@H](C)C(=O)N[C@H](C(=O)NCC#N)Cc2ccc(OCCN)c(c2)-c2cc1ccc2OCCN (racemic) [Compound 211, rac-(8S,11S,14S)-3,18-bis(2-aminoethoxy)-N-(cyanomethyl)-11-methyl-14-[methyl-[rac-(2S)-4-amino-2-[[2-methyl-6-[4-[1-(trifluoromethyl)cyclopropyl]phenyl]pyridine-3-carbonyl]amino]butanoyl]amino]-10,13-dioxo-9,12-diazatricyclo[13.3.1.12,6]icosa-1(18),2(20),3,5,15(19),16-hexaene-8-carboxamide]",0.17
3,"CCCCCCCCc1ccc(C(=O)N[C@@H](CCNS(N)(=O)=O)C(=O)N(C)[C@@H]2C(=O)N[C@@H](C)C(=O)N[C@H](C(=O)NCC#N)Cc3ccc(OCCN)c(c3)-c3cc2ccc3OCCN)c(C)c1 (racemic) [Compound 449, rac-(8S,11S,14S)-3,18-bis(2-aminoethoxy)-N-(cyanomethyl)-11-methyl-14-[methyl-[rac-(2S)-2-[(2-methyl-4-octyl-benzoyl)amino]-4-(sulfamoylamino)butanoyl]amino]-10,13-dioxo-9,12-diazatricyclo[13.3.1.12,6]icosa-1(18),2(20),3,5,15(19),16-hexaene-8-carboxamide]",0.5
4,"CC(C)Cc1ccc(-c2ncc(C(=O)N[C@@H](CCN)C(=O)N(C)[C@@H]3C(=O)N[C@@H](C)C(=O)N[C@H](C(=O)NCC#N)Cc4ccc(OCCN)c(c4)-c4cc3ccc4OCCN)c(C(F)F)n2)cc1 (racemic) [Compound 418, rac-(8S,11S,14S)-3,18-bis(2-aminoethoxy)-N-(cyanomethyl)-11-methyl-14-[methyl-[rac-(2S)-4-amino-2-[[4-(difluoromethyl)-2-(4-isobutylphenyl)pyrimidine-5-carbonyl]amino]butanoyl]amino]-10,13-dioxo-9,12-diazatricyclo[13.3.1.12,6]icosa-1(18),2(20),3,5,15(19),16-hexaene-8-carboxamide]",0.064
5,"Cc1nc(-c2ccc(C(C)(C)C)cc2)ncc1C(=O)N[C@@H](CNC(=O)CN)C(=O)N(C)[C@@H]1C(=O)N[C@@H](C)C(=O)N[C@H](C(=O)NCC#N)Cc2ccc(OCCN)c(c2)-c2cc1ccc2OCCN (racemic) [Compound 491, rac-(8S,11S,14S)-3,18-bis(2-aminoethoxy)-N-(cyanomethyl)-11-methyl-14-[methyl-[rac-(2S)-3-[(2-aminoacetyl)amino]-2-[[2-(4-tert-butylphenyl)-4-methyl-pyrimidine-5-carbonyl]amino]propanoyl]amino]-10,13-dioxo-9,12-diazatricyclo[13.3.1.12,6]icosa-1(18),2(20),3,5,15(19),16-hexaene-8-carboxamide]",3.1
6,"Cc1nc(-c2ccc(C(C)(C)C)cc2)ncc1C(=O)N[C@@H](CCNCC(N)=O)C(=O)N(C)[C@@H]1C(=O)N[C@@H](C)C(=O)N[C@H](C(=O)NCC#N)Cc2ccc(OCCN)c(c2)-c2cc1ccc2OCCN (racemic) [Compound 493, rac-(8S,11S,14S)-3,18-bis(2-aminoethoxy)-N-(cyanomethyl)-11-methyl-14-[methyl-[rac-(2S)-4-[(2-amino-2-oxo-ethyl)amino]-2-[[2-(4-tert-butylphenyl)-4-methyl-pyrimidine-5-carbonyl]amino]butanoyl]amino]-10,13-dioxo-9,12-diazatricyclo[13.3.1.12,6]icosa-1(18),2(20),3,5,15(19),16-hexaene-8-carboxamide]",1

# Same assay, conditions: Escherichia coli, ATCC25922, Table 7, cation adjusted Mueller Hinton Broth + 0.002% Tween-80, 35° C., 22 hours
row,SMILES,MIC [µM]
1,"Cc1nc(-c2ccc(C(C)(C)C)cc2)nc(C)c1C(=O)N[C@@H](CCN)C(=O)N(C)[C@@H]1C(=O)N[C@@H](C)C(=O)N[C@H](C(=O)NCC#N)Cc2ccc(OCCN)c(c2)-c2cc1cc(NC(N)=O)c2OCCN (racemic) [Compound 622, rac-(8S,11S,14S)-3,18-bis(2-aminoethoxy)-N-(cyanomethyl)-11-methyl-14-[methyl-[rac-(2S)-4-amino-2-[[2-(4-tert-butylphenyl)-4,6-dimethyl-pyrimidine-5-carbonyl]amino]butanoyl]amino]-10,13-dioxo-17-ureido-9,12-diazatricyclo[13.3.1.12,6]icosa-1(18),2(20),3,5,15(19),16-hexaene-8-carboxamide]",0.5
2,"COc1cc(O)c2cc1-c1cc(ccc1OCCN)[C@H](N(C)C(=O)[C@H](CCN)NC(=O)c1c(C)nc(-c3ccc(C(C)(C)C)cc3)nc1C)C(=O)N[C@@H](C)C(=O)N[C@H](C(=O)NCC#N)C2 (racemic) [Compound 625, rac-(8S,11S,14S)-18-(2-aminoethoxy)-N-(cyanomethyl)-5-hydroxy-3-methoxy-11-methyl-14-[methyl-[rac-(2S)-4-amino-2-[[2-(4-tert-butylphenyl)-4,6-dimethyl-pyrimidine-5-carbonyl]amino]butanoyl]amino]-10,13-dioxo-9,12-diazatricyclo[13.3.1.12,6]icosa-1(18),2(20),3,5,15(19),16-hexaene-8-carboxamide]",0.38
3,"Cc1nc(-c2ccc(C(C)(C)C)cc2)nc(C)c1C(=O)N[C@@H](CCN)C(=O)N(C)[C@@H]1C(=O)N[C@@H](C)C(=O)N[C@H](C(=O)NCC#N)Cc2cc(OCCN)c(O)c(c2)-c2cc1ccc2OC[C@H](O)CN (racemic) [Compound 594, rac-(8S,11S,14S)-4-(2-aminoethoxy)-N-(cyanomethyl)-3-hydroxy-11-methyl-14-[methyl-[rac-(2S)-4-amino-2-[[2-(4-tert-butylphenyl)-4,6-dimethyl-pyrimidine-5-carbonyl]amino]butanoyl]amino]-10,13-dioxo-18-[rac-(2R)-3-amino-2-hydroxy-propoxy]-9,12-diazatricyclo[13.3.1.12,6]icosa-1(18),2(20),3,5,15(19),16-hexaene-8-carboxamide]",0.13
